{"source": "paper PMC8765437", "about": "“GSK3640254 Is a Novel HIV-1 Maturation Inhibitor with an Optimized Virology Profile” (Antimicrobial Agents and Chemotherapy, 2022)", "key": {"[1]": {"experiment": "Estimation of minimum plasma concentration required for clinical efficacy", "set-up": "species or system human", "details": "multiples higher than PBA EC90 of the vast majority of HIV-1 isolates", "source_text": "These viruses were chosen to be representative of the population of Gag genes as a whole, including known polymorphism-containing viruses with reduced susceptibility to GSK’795, as well as SDM viruses with multiple changes that had previously been identified as relevant for susceptibility to earlier MIs ([7], [11])."}, "[2]": {"system": "HIV-1 viruses containing Gag region SDMs", "experiment": "Single-cycle infection assay with Gag SDM viruses", "type": "cell-based", "protocol": "Single-cycle infection assays were performed as described previously ([10]). Half-maximal effective concentration values were calculated as the compound concentration that inhibits 50% of the maximal signal (no-drug control), correcting for background. Background was determined as the residual signal observed upon inhibition at the highest concentration of a control protease inhibitor, nelfinavir (3 μM). Half-maximal fold change effective concentration versus WT values were calculated by dividing the EC50 of the recombinant virus by the EC50 of WT RepRlucNL4-3 virus run in parallel."}, "HIV-1 laboratory strains [3]": {"system": "HIV-1 laboratory strains", "experiment": "Laboratory strains, reverse transcriptase activity in MT-2 cells", "type": "cell-based", "details": "Human immunodeficiency virus 1, NL43, MT2, NL4-3; second value in cell; read-out: EC50 (converted)", "protocol": "(§1) Virus yields were measured in dose-response experiments by either luciferase activity in human T-cells (CEM-NKR-CCR5-Luc), extracellular reverse transcriptase activity in MT-2 cells (T-tropic viruses), or extracellular p24 antigen in PM1 cells (M-tropic viruses).\n(§2) Multiple-cycle assays using recombinant viruses or clinical isolates were used to assess MI antiviral activity as described previously ([10]). pNLRepRlucP373S (the P373S change is in the Gag gene and converts an outlier polymorphism in the NL4-3 gene to the prevalent amino acid in the population) plasmids containing SDMs in Gag or gag/pr regions from clinical isolates were transfected into HEK 293T cells, and the supernatant containing recombinant virus was harvested after 4 to 5 days. Virus was used to infect MT-2 cells in the presence of a 3-fold serially diluted compound at a final dimethyl sulfoxide (DMSO) concentration of 1%. The inocula of the reporter viruses were determined based on the luciferase activity detected on day 4 postinfection. The MOI (ratio of infectious virions to target cells) of reporter-free laboratory strains and clinical isolates was 0.005, as derived from a tissue culture infectious dose study. Clinical isolates or reporter-free viruses were examined in the reporter CEM-NKR-CCR5-Luc cells or PBMCs at MOIs ranging from 0.005 to 0.01. Each infection started with a drug-free preincubation of the cell-virus mixtures, performed at 37°C and 5% CO2 for either 1 h at 2 times the final cell density (reporter viruses) or 1 h (reporter-free laboratory strains) or 3 h (clinical isolates) using cell pellets in 0.5 mL of medium. After preincubation, cell-virus mixtures were added to compound-containing 96-well plates for a final cell density of either 10,000 (MT-2 cells for reporter viruses), 20,000 (MT-2 and PM1 cells for reporter-free laboratory strains), 200,000 (PBMCs for clinical isolates), or 500,000 (CEM-NKR-CCR5-Luc for reporter-free laboratory strains) cells per well. The CEM-NKR-CCR5-Luc cell assay was performed in the presence of Polybrene (10 μg/mL). Virus growth was determined on days 4 to 5 postinfection for reporter variants or days 5 to 11 for the other viruses. The reporter viruses were detected by a luciferase assay according to manufacturer protocols (Brite-Glo luciferase kit [Promega] for CEM-NKR-CCR5-Luc cells and Dual-Luciferase Reporter 1000 assay system [Promega] for the other cells), and luminescence was detected on a Wallac Trilux. The growth of clinical isolates in PBMCs was quantitated by reverse transcriptase activity in a 96-well scintillation proximity assay (SPA). Twenty microliters of culture supernatants was mixed with 40 μL of reaction cocktail (62.5 mM Tris-HCl [pH 7.8], 100 mM KCl, 0.0625% NP-40, 2.5 mM dithiothreitol [DTT], 6.25 mM MgCl2, 1 mM EGTA, 6.25 μg/mL of poly rA, 2.5 μg/mL of streptavidin SPA beads prebound with biotinylated-dT12-18, and 1 μCi of [^3H]TTP). Mixtures were incubated at 37°C for ∼3 h and quenched with 100 μl of 0.25 M EDTA per well. Luminescence was detected on a Wallac Trilux programmed for tritium counting with SPA beads in opaque plates. The growth of the reporter-free laboratory M-tropic strains and clinical isolates was monitored by a p24 enzyme-linked immunosorbent assay (ELISA; PerkinElmer Life Sciences, Waltham, MA) performed on culture supernatants.\n(§3) Maximal percent inhibition values were calculated as MPI = 100 – (mean signals at the 2 highest concentrations of compound/mean signal of 2 no-drug control wells) × 100."}, "HIV-1 laboratory strains [4]": {"system": "HIV-1 laboratory strains", "experiment": "Laboratory strains, luciferase activity in CEM-NKR-CCR5-Luc cells", "type": "cell-based", "protocol": "as §1, §2, §3"}}, "note": "Like-named read-outs stand apart in the source and are kept apart here.", "data": [{"smiles": "C=C(C)[C@@H]1CC[C@]2(NCCN3CCS(=O)(=O)CC3)CC[C@]3(C)[C@H](CC[C@@H]4[C@@]5(C)CC=C(C6=CC[C@@](CF)(C(=O)O)CC6)C(C)(C)[C@@H]5CC[C@]43C)[C@@H]12", "note": "[GSK’254]", "values": [{"measurement": "estimated Cmin (target human steady-state serum concentration)", "setting": "[1]", "result": 150, "unit": "nM"}, {"measurement": "MPI", "setting": "[2]; A364V", "result": 45, "unit": "%"}, {"measurement": "MPI", "setting": "[2]; A366V", "result": "−7.6", "unit": "%"}, {"measurement": "MPI", "setting": "[2]; A366V/V370M", "result": 26, "unit": "%"}, {"measurement": "MPI", "setting": "[2]; H358Y/ΔT371", "result": 67, "unit": "%"}, {"measurement": "EC50", "setting": "[2]; Human immunodeficiency virus 1, V362I/V370A", "result": 4, "unit": "nM"}, {"measurement": "EC50", "setting": "[2]; Human immunodeficiency virus 1, read-out: Mean ± SD EC50, A364V", "result": "> 3000", "unit": "nM"}, {"measurement": "EC50", "setting": "[2]; Human immunodeficiency virus 1, read-out: Mean ± SD EC50, A366V", "result": "> 3000", "unit": "nM"}, {"measurement": "EC50", "setting": "[2]; Human immunodeficiency virus 1, read-out: Mean ± SD EC50, A366V/V370M", "result": "> 3000", "unit": "nM"}, {"measurement": "EC50", "setting": "[2]; Human immunodeficiency virus 1, read-out: Mean ± SD EC50, H358Y/ΔT371", "result": "35 ± 2", "unit": "nM"}, {"measurement": "EC50", "setting": "[2]; Human immunodeficiency virus 1, read-out: Mean ± SD EC50, I333V/V362I", "result": "39 ± 5", "unit": "nM"}, {"measurement": "EC50", "setting": "[2]; Human immunodeficiency virus 1, read-out: Mean ± SD EC50, I333V/V370", "result": "11 ± 1", "unit": "nM"}, {"measurement": "EC50", "setting": "[2]; Human immunodeficiency virus 1, read-out: Mean ± SD EC50, I333V/V370A", "result": "11 ± 1", "unit": "nM"}, {"measurement": "EC50", "setting": "[2]; Human immunodeficiency virus 1, read-out: Mean ± SD EC50, M367V", "result": "15 ± 10", "unit": "nM"}, {"measurement": "EC50", "setting": "[2]; Human immunodeficiency virus 1, read-out: Mean ± SD EC50, R361K/V362I/L363M", "result": "14 ± 2", "unit": "nM"}, {"measurement": "EC50", "setting": "[2]; Human immunodeficiency virus 1, read-out: Mean ± SD EC50, T33N/V370A", "result": 3, "unit": "nM"}, {"measurement": "EC50", "setting": "[2]; Human immunodeficiency virus 1, read-out: Mean ± SD EC50, T332N/V370A", "result": "4 ± 1", "unit": "nM"}, {"measurement": "EC50", "setting": "[2]; Human immunodeficiency virus 1, read-out: Mean ± SD EC50, T332S/V362I/prR41G", "result": "13 ± 9", "unit": "nM"}, {"measurement": "EC50", "setting": "[2]; Human immunodeficiency virus 1, read-out: Mean ± SD EC50, V362I", "result": "3 ± 1", "unit": "nM"}, {"measurement": "EC50", "setting": "[2]; Human immunodeficiency virus 1, read-out: Mean ± SD EC50, V362I/A366V", "result": "> 3000", "unit": "nM"}, {"measurement": "EC50", "setting": "[2]; Human immunodeficiency virus 1, read-out: Mean ± SD EC50, V362I/A366V/V370M", "result": "> 3000", "unit": "nM"}, {"measurement": "EC50", "setting": "[2]; Human immunodeficiency virus 1, read-out: Mean ± SD EC50, V362I/H219Q", "result": "7 ± 2", "unit": "nM"}, {"measurement": "EC50", "setting": "[2]; Human immunodeficiency virus 1, read-out: Mean ± SD EC50, V362I/H219Q/T332S", "result": "8 ± 3", "unit": "nM"}, {"measurement": "EC50", "setting": "[2]; Human immunodeficiency virus 1, read-out: Mean ± SD EC50, V362I/V370A", "result": "4 ± 1", "unit": "nM"}, {"measurement": "EC50", "setting": "[2]; Human immunodeficiency virus 1, read-out: Mean ± SD EC50, V362I/V370M", "result": "4 ± 2", "unit": "nM"}, {"measurement": "EC50", "setting": "[2]; Human immunodeficiency virus 1, read-out: Mean ± SD EC50, V370A", "result": "2 ± 1", "unit": "nM"}, {"measurement": "EC50", "setting": "[2]; Human immunodeficiency virus 1, read-out: Mean ± SD EC50, V370M", "result": "2 ± 1", "unit": "nM"}, {"measurement": "EC50", "setting": "[2]; Human immunodeficiency virus 1, read-out: Mean ± SD EC50, Wild type", "result": "3 ± 2", "unit": "nM"}, {"measurement": "EC50", "setting": "[2]; Human immunodeficiency virus 1, read-out: Mean ± SD EC50, ΔV370", "result": 8, "unit": "nM"}, {"measurement": "MPI", "setting": "[2]; I333V/V362I", "result": 65, "unit": "%"}, {"measurement": "MPI", "setting": "[2]; I333V/V370", "result": 86, "unit": "%"}, {"measurement": "MPI", "setting": "[2]; I333V/V370A", "result": 86, "unit": "%"}, {"measurement": "MPI", "setting": "[2]; M367V", "result": 89, "unit": "%"}, {"measurement": "MPI", "setting": "[2]; R361K/V362I/L363M", "result": 89, "unit": "%"}, {"measurement": "MPI", "setting": "[2]; T33N/V370A", "result": 94, "unit": "%"}, {"measurement": "MPI", "setting": "[2]; T332N/V370A", "result": 94, "unit": "%"}, {"measurement": "MPI", "setting": "[2]; T332S/V362I/prR41G", "result": 88, "unit": "%"}, {"measurement": "MPI", "setting": "[2]; V362I", "result": 89, "unit": "%"}, {"measurement": "MPI", "setting": "[2]; V362I/A366V", "result": "−96", "unit": "%"}, {"measurement": "MPI", "setting": "[2]; V362I/A366V/V370M", "result": 1, "unit": "%"}, {"measurement": "MPI", "setting": "[2]; V362I/H219Q", "result": 91, "unit": "%"}, {"measurement": "MPI", "setting": "[2]; V362I/H219Q/T332S", "result": 91, "unit": "%"}, {"measurement": "MPI", "setting": "[2]; V362I/V370A", "result": 91, "unit": "%"}, {"measurement": "MPI", "setting": "[2]; V362I/V370M", "result": 90, "unit": "%"}, {"measurement": "MPI", "setting": "[2]; V370A", "result": 97, "unit": "%"}, {"measurement": "MPI", "setting": "[2]; V370M", "result": 93, "unit": "%"}, {"measurement": "MPI", "setting": "[2]; Wild type", "result": 98, "unit": "%"}, {"measurement": "MPI", "setting": "[2]; ΔV370", "result": 96, "unit": "%"}, {"measurement": "EC50", "setting": "HIV-1 laboratory strains [3]", "result": 7.3, "unit": "nM"}, {"measurement": "EC50", "setting": "HIV-1 laboratory strains [4]; Human immunodeficiency virus 1, 8 HIV-1 laboratory strains (luciferase or p24 endpoints), read-out: mean (standard error of the mean) EC50", "result": 0.8, "unit": "nM"}, {"measurement": "EC50", "setting": "HIV-1 laboratory strains [4]; Human immunodeficiency virus 1, 8 HIV-1 laboratory strains, read-out: EC50 range", "result": "0.3 to 1.2", "unit": "nM"}, {"measurement": "EC50", "setting": "HIV-1 laboratory strains [4]; Human immunodeficiency virus 1, HXB2, HXB2, T tropic, read-out: EC50 ± SD", "result": "0.7 ± 0.1", "unit": "nM"}, {"measurement": "EC50", "setting": "HIV-1 laboratory strains [4]; Human immunodeficiency virus 1, IIIB, IIIB, T tropic, read-out: EC50 ± SD", "result": "0.6 ± 0.4", "unit": "nM"}, {"measurement": "EC50", "setting": "HIV-1 laboratory strains [4]; Human immunodeficiency virus 1, LAI, T tropic, read-out: EC50 ± SD", "result": "0.7 ± 0.1", "unit": "nM"}, {"measurement": "EC50", "setting": "HIV-1 laboratory strains [4]; Human immunodeficiency virus 1, MN, T tropic, read-out: EC50 ± SD", "result": 0.3, "unit": "nM"}, {"measurement": "EC50", "setting": "HIV-1 laboratory strains [4]; Human immunodeficiency virus 1, NL43, NL4-3, T tropic, read-out: EC50 ± SD", "result": "0.9 ± 0.2", "unit": "nM"}, {"measurement": "EC50", "setting": "HIV-1 laboratory strains [4]; Human immunodeficiency virus 1, RF, T tropic, read-out: EC50 ± SD", "result": "0.9 ± 0.15", "unit": "nM"}, {"measurement": "EC50", "setting": "HIV-1 laboratory strains [4]; Human immunodeficiency virus 1, reporter cell line, read-out: EC50 values for T-tropic HIV-1", "result": "< 1", "unit": "nM"}]}]}
